Measured values: the NIST ThermoML archive (doi:10.1021/je500381c)

Test: xn = mol fraction of the nth substance listed
Conditions: for mass density / viscosity: 100 kPa, Liquid; for mass density: Vibrating tube method; for surface tension liquid-gas: Drop volume

CC12CC3CC(C)(C1)CC(C)(C3)C2 [1,3,5-trimethyladamantane] + CCCCCCCO
Conditions	mass density [kg/m3]	surface tension liquid-gas [mN/m]	viscosity [mPa·s]
293.15 K, x2 = 0	887.48	–	2.601
293.15 K, x2 = 0.1001	882.47	–	2.626
293.15 K, x2 = 0.2001	877.46	–	2.775
293.15 K, x2 = 0.3002	872.11	–	2.97
293.15 K, x2 = 0.4004	866.49	–	3.242
293.15 K, x2 = 0.5001	860.53	–	3.5
293.15 K, x2 = 0.6002	854.11	–	4.051
293.15 K, x2 = 0.7001	847.23	–	4.645
293.15 K, x2 = 0.7999	839.77	–	5.371
293.15 K, x2 = 0.9002	831.44	–	6.221
298.15 K, x2 = 0	883.99	26.17	2.338
298.15 K, x2 = 0.1001	878.9	26.19	2.349
298.15 K, x2 = 0.2001	873.88	26.22	2.469
298.15 K, x2 = 0.3002	868.52	26.26	2.632
298.15 K, x2 = 0.4004	862.91	26.32	2.854
298.15 K, x2 = 0.5001	856.94	26.34	3.131
298.15 K, x2 = 0.6002	850.53	26.36	3.51
298.15 K, x2 = 0.7001	843.66	26.32	3.99
298.15 K, x2 = 0.7999	836.22	26.3	4.567
298.15 K, x2 = 0.9002	827.93	26.29	5.229
303.15 K, x2 = 0	880.47	–	2.118
303.15 K, x2 = 0.1001	875.31	–	2.114
303.15 K, x2 = 0.2001	870.27	–	2.212
303.15 K, x2 = 0.3002	864.91	–	2.35
303.15 K, x2 = 0.4004	859.29	–	2.533
303.15 K, x2 = 0.5001	853.32	–	2.758
303.15 K, x2 = 0.6002	846.91	–	3.066
303.15 K, x2 = 0.7001	840.05	–	3.457
303.15 K, x2 = 0.7999	832.63	–	3.924
303.15 K, x2 = 0.9002	824.38	–	4.464
308.15 K, x2 = 0	876.94	–	1.93
308.15 K, x2 = 0.1001	871.72	–	1.911
308.15 K, x2 = 0.2001	866.65	–	1.992
308.15 K, x2 = 0.3002	861.27	–	2.108
308.15 K, x2 = 0.4004	855.65	–	2.261
308.15 K, x2 = 0.5001	849.68	–	2.444
308.15 K, x2 = 0.6002	843.28	–	2.699
308.15 K, x2 = 0.7001	836.41	–	3.015
308.15 K, x2 = 0.7999	829.02	–	3.396
308.15 K, x2 = 0.9002	820.8	–	3.841
313.15 K, x2 = 0	873.4	–	1.765
313.15 K, x2 = 0.1001	868.1	–	1.737
313.15 K, x2 = 0.2001	863	–	1.802
313.15 K, x2 = 0.3002	857.62	–	1.899
313.15 K, x2 = 0.4004	851.98	–	2.027
313.15 K, x2 = 0.5001	846.01	–	2.178
313.15 K, x2 = 0.6002	839.62	–	2.387
313.15 K, x2 = 0.7001	832.76	–	2.648
313.15 K, x2 = 0.7999	825.37	–	2.957
313.15 K, x2 = 0.9002	817.19	–	3.327
318.15 K, x2 = 0	869.86	–	1.621
318.15 K, x2 = 0.1001	864.47	–	1.585
318.15 K, x2 = 0.2001	859.34	–	1.636
318.15 K, x2 = 0.3002	853.95	–	1.719
318.15 K, x2 = 0.4004	848.3	–	1.826
318.15 K, x2 = 0.5001	842.32	–	1.952
318.15 K, x2 = 0.6002	835.93	–	2.124
318.15 K, x2 = 0.7001	829.07	–	2.338
318.15 K, x2 = 0.7999	821.7	–	2.593
318.15 K, x2 = 0.9002	813.54	–	2.899
323.15 K, x2 = 0	866.31	–	1.494
323.15 K, x2 = 0.1001	860.82	–	1.452
323.15 K, x2 = 0.2001	855.66	–	1.494
323.15 K, x2 = 0.3002	850.25	–	1.561
323.15 K, x2 = 0.4004	844.59	–	1.652
323.15 K, x2 = 0.5001	838.61	–	1.756
323.15 K, x2 = 0.6002	832.21	–	1.899
323.15 K, x2 = 0.7001	825.35	–	2.049
323.15 K, x2 = 0.7999	817.99	–	2.287
323.15 K, x2 = 0.9002	809.87	–	2.541
328.15 K, x2 = 0	862.76	–	1.384
328.15 K, x2 = 0.1001	857.16	–	1.335
328.15 K, x2 = 0.2001	851.96	–	1.368
328.15 K, x2 = 0.3002	846.53	–	1.424
328.15 K, x2 = 0.4004	840.86	–	1.5
328.15 K, x2 = 0.5001	834.86	–	1.587
328.15 K, x2 = 0.6002	828.46	–	1.707
328.15 K, x2 = 0.7001	821.6	–	1.855
328.15 K, x2 = 0.7999	814.26	–	2.029
328.15 K, x2 = 0.9002	806.15	–	2.239
333.15 K, x2 = 0	859.2	–	1.284
333.15 K, x2 = 0.1001	853.48	–	1.232
333.15 K, x2 = 0.2001	848.24	–	1.257
333.15 K, x2 = 0.3002	842.78	–	1.303
333.15 K, x2 = 0.4004	837.09	–	1.367
333.15 K, x2 = 0.5001	831.09	–	1.44
333.15 K, x2 = 0.6002	824.68	–	1.54
333.15 K, x2 = 0.7001	817.82	–	1.663
333.15 K, x2 = 0.7999	810.48	–	1.808
333.15 K, x2 = 0.9002	802.4	–	1.984
